Reference: patent publication US12636277B2, “Methods for treating developmental dysplasis of hip” (WEST CHINA HOSPITAL OF SICHUAN UNIVERSITY, priority 2024, dated 2026)
“Also recorded” adds a separate entry of the source.

Columns and labels:
[1] = system: NR3C1 and MDK expression in primary FSPC; test: Western blot of NR3C1 and MDK expression in primary FSPC after iMDK treatment; format: cell-based, human; settings: iMDK 100 nM, DDH group FSPC in vitro, compared with the DDH group
Protocol: (§1) The samples from the DDH group were divided into two portions, one of which was treated with iMDK in vitro (DDH cell samples were added with iMDK, where the iMDK was 100 nM), and the specific dosages and treatments were not restricted by reference to commonly used inhibitor treatments or mixed cultures, etc. Cells in the control group and DDH group were cultured in the same way (the difference is no iMDK treatment). Post-treatment samples were examined for the expression levels of NR3C1 and MDK and cell proliferation of primary FSPC from different groups after treatment with the MDK inhibitor (IMDK), using Western blot and the Edu assay, etc., and the results were shown in FIGS. 3E-3F. As shown in FIGS. 3E-3F, compared with the DDH group, the expression levels of NR3C1 and MDK were reduced and the cell proliferation was reduced in the control group. Compared with the DDH group, the expression levels of NR3C1 and MDK were reduced in iMDK-treated FSPC, and cell proliferation capacity was reduced.

DDH rat model = test: DDH rat model, iMDK injected into the hip joints (Micro CT, HE and safranin O-solid green staining, immunohistochemistry); format: in vivo, Wistar rats; settings: 5 mg/kg body weight into hip joints for 7 days
Protocol: In some embodiments, a DDH rat model is established to illustrate the results of the present disclosure. The manner of establishing the DDH rat model is as follows.
Fifteen neonatal rodents (e.g., Wistar rats, etc.) were divided into the control group, DDH group, and iMDK group. The DDH rat model was prepared by fixing the hind limbs of rats in the DDH group and the iMDK group using medical adhesive tape, etc., and keeping the hip joints internally retracted or post-extended for 10 days. […] Neonatal rats were fed by their mothers and had normal growth, development, and nutritional status. Rats in the DDH group and the iMDK group were de-taped for 30 min daily.
After 10 days, iMDK (e.g., HY-110171, etc.) was injected into the hip joints of rats in the iMDK group at a dosage of 5 mg/kg body weight for 7 days. Rats in the DDH group and control group were injected with equal volumes of saline.
It can be seen from FIG. 4 that compared with the control group, the acetabulum of the rats in the DDH group became shallow and the hip joints were dislocated.
In some embodiments, hip specimens were stained with HE (hematoxylin-eosin staining) and safranin O-solid green SO, and the results are shown in FIGS. 5A-5B. As shown in FIGS. 5A-5B, the acetabular labrum was thickened and the articular structure was disorganized in the DDH group. The iMDK group inhibited abnormal manifestations within the joint such as thickening of the acetabular labrum and joint structure disorders.

primary FSPC = test: Edu assay of cell proliferation of primary FSPC after iMDK treatment; format: cell-based, human; settings: iMDK 100 nM, DDH group FSPC in vitro, compared with the DDH group
Protocol: as §1

[2] = hip specimens, rank among DDH, DDH+iMDK and control groups

## O=c1oc2ccccc2cc1-c1cn2cc(Cc3ccc(F)cc3)sc2n1 [iMDK]
[1]
  expression level of MDK: reduced
  expression level of NR3C1: reduced
DDH rat model; hip specimens
  abnormal manifestations within the joint such as thickening of the acetabular labrum and joint structure disorders (HE, safranin O-solid green staining): inhibited; also recorded: inhibits the thickening of the acetabular labrum
DDH rat model; [2]
  expression level of Ki67 (immunohistochemistry): highest in the DDH group, followed by the DDH+iMDK group
  expression level of NR3C1 (immunohistochemistry): highest in the DDH group, followed by the DDH+iMDK group
DDH rat model; specimens 24 days after end of treatment
  hip dislocation (Micro CT): significant improvement
Primary FSPC
  cell proliferation capacity: reduced
